The values below come from EP4202440A1, “PROTEOMICS-BASED STRATIFICATION OF ACUTE MYELOID LEUKAEMIA” (Max-Planck-Gesellschaft zur Förderung der Wissenschaften …, priority 2021, dated 2023).

In assay [1] the test system is AML cell lines. The assay is described as follows: Cell viability assay (MTT dye reduction), Mito-high versus Mito-low AML cell lines. It counts as cell-based, Human. To be noted: 96 h incubation, Mito AML cell lines (n=9) vs non-Mito AML cell lines (n=10), Wilcoxon rank sum test, Figure 6D. An excerpt:
Human AML cell lines including THP-1 (DSMZ no. ACC16; […]), OCI-AML2 (DSMZ No. ACC 99; FAB M4), OCI-AML3 (DSMZ No. ACC 582; FAB M4), Molm13 (DSMZ No. ACC 554; FAB […]), PL-21 (DSMZ No. ACC 536; FAB M3), HL-60 (DSMZ No. ACC 3; FAB M2), MV4-11 (DSMZ No. ACC 102; FAB M5), SIG-M5 (DSMZ No. ACC 468; FAB […]), ML2 (DSMZ No. ACC 15; FAB M4), NB4 (DSMZ No. ACC 207; FAB M3), KG1 (DSMZ No. ACC 14; FAB not indicated), KG-1a (DSMZ No. ACC 421; FAB not indicated), U-937 (DSMZ No. ACC 5, FAB not indicated), Kasumi-1 (DSMZ No. ACC 220, FAB M2), EOL-1 (DSMZ No. ACC 386, FAB not indicated), OCI-AML5 (DSMZ No. ACC 247, FAB M4), UT-7 (DSMZ No. ACC 137, FAB M7), SET-2 (DSMZ No. ACC 608, FAB no indicated), MonoMac6 (DSMZ No. ACC 124; FAB M5) and HEL (DSMZ No. ACC 11; FAB M6) were obtained from DSMZ (Deutsche Sammlung von Mikroorganismen und Zellkulturen GmbH). THP-1, OCI-AML2, OCI-AML3, Molm13, PL-21, HL-60, MV4-11, SIG-M5, ML2, NB4, KG1, KG-1a, U-937, EOL-1, SET-2, MonoMac6 and HEL were cultured in RPMI 1640 (ThermoFisher, Cat. No. 11875093), supplemented with 20% FBS, 4 mM L-glutamine, 100 IU/ml penicillin and […] streptomycin. Kasumi-1 and OCI-AML5 were cultured in Advanced RPMI (ThermoFisher, Cat. No. 12633012) supplemented with 5% FBS, 4 mM L-glutamine, 100 IU/ml penicillin and […] streptomycin. […] IC50 values were determined using the R package "drc" v3.0-1 (Ritz et al., 2015). […]

Assay [2] relates to AML cell lines. The assay is described as follows: Seahorse analysis: complex I dependency of respiration after rotenone, cell lines.
Assay [3] concerns primary patient samples. The assay is described as follows: Seahorse analysis: complex I dependency of respiration after rotenone, primary patient samples.

Take `FC(F)(F)c1ccc(/C=C/c2nc(COc3ccc(CCCCn4ccnn4)cc3)co2)cc1` [mubritinib, Mubritinib]: in assay [1], the “half-maximum inhibitory concentration (IC50): in vitro sensitivity of Mito-high and -low cell lines” value is “significant hypersensitivity”.

As for `C=C(C)[C@H]1Cc2c(ccc3c2O[C@@H]2COc4cc(OC)c(OC)cc4[C@@H]2C3=O)O1` [rotenone, Rotenone], the “Complex I dependency (percentage of basal oxygen consumption rate after inhibition with rotenone)” value in assay [2] and in assay [3] was “significantly stronger Complex I dependency” in each case.
